These results are taken from patent publication US20030149084A1, “Cytostatic agents” (priority 1998, published 2003).

The test system of data set [1] is human histiocytic lymphoma cell line (U937). Briefly: U937 cell proliferation assay (methyl-3H thymidine incorporation). The conditions noted are these: Homo sapiens, U-937, U937 cells; test compound 6 μM; 72 hours in culture, 3 hours pulse; control DMSO 0.08%; n=6. Format: cell-based. The procedure:
The compounds of examples 1 to 10 were tested the following cell proliferation assay, to determine their respective capacities to inhibit proliferation.
A human histiocytic lymphoma cell line (U937) was seeded into 30 mm^2 tissue culture wells, in the appropriate culture medium supplemented with 10% fetal calf serum at a density of 250 cells/mm^2. Six hours later the test compounds were added in the same culture medium to the cells to give a final concentration of 6 μM. Control wells contained cells supplemented with the same culture medium containing the equivalent amount of drug vehicle, which in this case was DMSO at a final concentration of 0.08%. After 72 hours in culture the cells were pulsed for 3 hours with methyl-^3H Thymidine (20 μCi/ml) and then harvested onto filter mats and DNA associated radioactivity counted. Results are expressed as percentage of control methyl-^3H Thydimine incorporation (n=6±1 stdv).

In the case of `CCCC[C@H](CN(O)C=O)C(=O)N[C@H](C(=O)OC)C(C)(C)C` [Example 5, 2S-{2R-[(Formyl-hydroxy-amino)-methyl]-hexanoylamino}-3,3-dimethyl Butyric Acid Methyl Ester], the melting point – broadly, the temperature of the solid-liquid transition – was in the range of 63.5 to 64.5 °C. The activity at 6 µM in data set [1] was found to be 86%.
In the same order, the values of `CCCC[C@H](CN(O)C=O)C(=O)N[C@H](C(=O)OCC)c1ccccc1` [Example 10, 2S-{2R-[(Formyl-hydroxy-amino)-methyl]-hexanoylamino}-2-phenyl Acetic Acid Ethyl Ester] are 134 to 136 °C and 7%.
In the same order, the values of `CCCC[C@H](CN(O)C=O)C(=O)N[C@H](C(=O)OC(C)C)c1ccccc1` [Example 11, S-{2R-[(Formyl-hydroxy-amino)-methyl]-hexanoylamino}-2-phenyl Acetic Acid Iso-Propyl Ester] are 142 to 145 °C and 36%.
In the same order, the values of `CCCC[C@H](CN(O)C=O)C(=O)N[C@H](C(=O)OCC)C(C)(C)C` [Example 12, 2S-{2R-[(Formyl-hydroxy-amino)-methyl]-hexanoylamino}-3,3-dimethyl Butyric Acid Ethyl Ester] are 85 to 87 °C and 77%.
In the case of `CCCC[C@H](CN(O)C=O)C(=O)N[C@H](C(=O)OC1CCCC1)c1ccccc1` [Example 13, S-{2R-[(Formyl-hydroxy-amino)-methyl]-hexanoylamino}-2-phenyl Acetic Acid Cyclo-Pentyl Ester], the melting point lay in the range of 119 to 120 °C.
Regarding `CCCC[C@H](CN(O)C=O)C(=O)N[C@@H](Cc1ccccc1)C(=O)OC(C)C` [Example 19, 2S-{2R-[(Formyl-hydroxy-amino)methyl]-hexanoylamino}-3-phenyl-propionic Acid Iso-Propyl Ester], in data set [1], the activity at 6 µM is 0%.
`CCCC[C@H](CN(O)C=O)C(=O)N[C@H](C(=O)OC)c1ccccc1` [Example 20, S-{2R-[(Formyl-hydroxy-amino)-methyl]-hexanoylamino}-2-phenyl Acetic Acid Methyl Ester] yielded an activity at 6 µM in data set [1] of 53%.
`CCCC[C@H](CN(O)C=O)C(=O)N[C@H](C(=O)OC(C)(C)C)c1ccccc1` [Example 21, S-{2R-[(Formyl-hydroxy-amino)-methyl]-hexanoylamino}-2-phenyl Acetic Acid Tert-Butyl Ester] registered an activity at 6 µM in data set [1] of 90%.
Take `CCCC[C@H](CN(O)C=O)C(=O)N[C@@H](Cc1ccccc1)C(=O)OC(C)(C)C` [Example 22, 2S-{2R-[(Formyl-hydroxy-amino)-methyl]-hexanoylamino}-3-phenyl-propionic Acid Tert-Butyl Ester]: the melting point fell in the range of 95 to 98 °C. Further, the activity at 6 µM in data set [1] amounted to 53%.
In data set [1], `CCC[C@@H]([C@@H](CC(C)C)C(=O)N[C@@H](COC(C)(C)C)C(=O)OC1CCCC1)N(O)C=O` [Example 23, 3-tert-Butoxy-2S-[3S-(formyl-hydroxy-amino)-2R-isobutyl-hexanoylamino]-propionic Acid Cyclopentyl Ester] had an activity at 6 µM of 5%.
`CCC[C@@H]([C@@H](Cc1ccccc1)C(=O)N[C@@H](COC(C)(C)C)C(=O)OC1CCCC1)N(O)C=O` [Example 24, 2S-[2R-Benzyl-3S-(formyl-hydroxy-amino)-hexanoylamino]-3-tert-butoxypropionic Acid Cyclopentyl Ester] showed an activity at 6 µM in data set [1] of 0%.
With `CCC[C@@H]([C@@H](CC(C)C)C(=O)N[C@H](C(=O)OCC)c1ccccc1)N(O)C=O` [Example 25, S-[3S-(Formyl-hydroxy-amino)-2R-isobutyl-hexanoylamino]-phenyl-acetic Acid Ethyl Ester], the activity at 6 µM in data set [1] worked out at 3%.
The same measure, in the same setting: to `CCC[C@@H]([C@@H](CC(C)C)C(=O)N[C@H](C(=O)OCCOC)c1ccccc1)N(O)C=O` [Example 26, S-[3S-(Formyl-hydroxy-amino)-2R-isobutyl-hexanoylamino]-phenyl-acetic Acid Methoxyethyl Ester] belongs 10%.
`CCC[C@@H]([C@@H](Cc1ccccc1)C(=O)N[C@@H](Cc1ccccc1)C(=O)OC1CCCC1)N(O)C=O` [Example 27, 2S-[2R-Benzyl-3S-(formyl-hydroxy-amino)hexanoylamino]-3-phenyl-propionic Acid Cyclopentyl Ester]: the activity at 6 µM in data set [1] came to 0%.
Same read-out and setting: to `CCC[C@@H]([C@@H](Cc1ccccc1)C(=O)N[C@H](C(=O)OC1CCCC1)c1ccccc1)N(O)C=O` [Example 28, S-[2R-Benzyl-3S-(formyl-hydroxy-amino)hexanoylamino]-phenyl-acetic Acid Cyclopentyl Ester] belongs 0%; to `CCC[C@@H]([C@@H](Cc1ccccc1)C(=O)N[C@H](C(=O)OCCOC)c1ccccc1)N(O)C=O` [Example 29, S-[2R-Benzyl-3S-(formyl-hydroxy-amino)hexanoylamino]-phenyl-acetic Acid Methoxyethyl Ester], 0%.
Still for that read-out and setting: to `CCC[C@@H]([C@@H](CC(C)C)C(=O)N[C@H](C(=O)OCC1CCCC1)c1ccccc1)N(O)C=O` [Example 32, S-[3S-(Formyl-hydroxy-amino)-2R-isobutyl-hexanoylamino]-phenyl-acetic Acid Cyclopentylmethyl Ester] belongs 8%.
The same measure, in the same setting: to `CCC[C@@H]([C@@H](CC(C)C)C(=O)N[C@H](C(=O)OC1CCCC1)c1ccccc1)N(O)C=O` [Example 33, S-[3S-(Formyl-hydroxy-amino)-2R-isobutyl-hexanoylamino]-phenyl-acetic Acid Cyclopentyl Ester] belongs 0%.
